Source: patent US9815788B2, “Anti-angiogenic compounds” (University College Dublin National University of Ireland, …, priority 2012, dated 2017)

Columns and labels:
[1] = molecular target: T1, CysLT2 receptor (Homo sapiens, UniProt Q9NS75); test: CysLT2 calcium mobilisation assay in HEK 293 cells; format: cell-based; conditions: HEK293, 30 nM LTC4, HEK-293 cells expressing CysLT2, read-out: inhibition of calcium mobilisation (CysLT2 antagonism)
T1 construct: host or cells: HEK 293 cells
T1 sequence (Q9NS75 1-346): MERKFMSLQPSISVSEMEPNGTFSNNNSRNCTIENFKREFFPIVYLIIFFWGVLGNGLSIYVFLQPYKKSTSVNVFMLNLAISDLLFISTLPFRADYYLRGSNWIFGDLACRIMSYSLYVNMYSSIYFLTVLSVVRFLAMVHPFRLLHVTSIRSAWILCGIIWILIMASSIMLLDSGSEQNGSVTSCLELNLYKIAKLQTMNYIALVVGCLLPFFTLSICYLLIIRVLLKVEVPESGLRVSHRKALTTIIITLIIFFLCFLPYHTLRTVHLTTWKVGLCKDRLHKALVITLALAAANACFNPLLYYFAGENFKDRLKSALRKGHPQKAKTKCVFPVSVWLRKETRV
Experimental: (§1) FIG. 15 tables the percentage inhibition by compounds 11B_CC11_HCl and 11B_CC16_HCl on the cysteinyl leukotriene pathway in in vitro and ex vivo assays. […] For in vitro cysteinyl leukotriene cell-based assays 11B_CC11_HCl and 11B_CC16_HCl, were tested at 30 μM concentration in duplicate, in a single experiment for their ability to inhibit the calcium mobilisation response of the CysLT1 receptor to 0.1 nM leukotriene D4 in CHO cells over-expressing the CysLT1 receptor or the calcium mobilisation response of the CysLT2 receptor to 30 nM of leukotriene C4 in HEK 293 cells over expressing the CysLT2 receptor.
(§2) Target profiling using Cerep and Eurofins/Panlabs profiling screens was undertaken using 11B_CC11_HCl and 11B_CC16_HCl in order to investigate the mechanism of action. […] Test substance (30 LM)-induced isometrically recorded contraction by 50 percent or more within 5 min, relative to control 3 nM leukotriene D4 response, indicates possible cysteinyl-leukotriene LT1 receptor agonist activity. […] To measure inhibition of cysteinyl leukotriene 1 (CysLT1 [LTD4]) and cysteinyl leukotriene 2 (CysLT2 [LTC4]) receptor activity, calcium mobilisation was measured using Fluor-3-loaded CHO cells (for cysLT1 assays) or HEK-293 cells (for CysLT2 assays) which stably express either the CysLT1 or CysLT2 receptors. […]

[2] = molecular target: T2, CysLT1 receptor (Homo sapiens, UniProt Q9Y271); test: CysLT1 calcium mobilisation assay in CHO cells; format: cell-based; conditions: 0.1 nM LTD4, CHO cells expressing CysLT1, read-out: inhibition of calcium mobilisation (CysLT1 antagonism)
T2 construct: host or cells: CHO cells
T2 sequence (Q9Y271 1-337): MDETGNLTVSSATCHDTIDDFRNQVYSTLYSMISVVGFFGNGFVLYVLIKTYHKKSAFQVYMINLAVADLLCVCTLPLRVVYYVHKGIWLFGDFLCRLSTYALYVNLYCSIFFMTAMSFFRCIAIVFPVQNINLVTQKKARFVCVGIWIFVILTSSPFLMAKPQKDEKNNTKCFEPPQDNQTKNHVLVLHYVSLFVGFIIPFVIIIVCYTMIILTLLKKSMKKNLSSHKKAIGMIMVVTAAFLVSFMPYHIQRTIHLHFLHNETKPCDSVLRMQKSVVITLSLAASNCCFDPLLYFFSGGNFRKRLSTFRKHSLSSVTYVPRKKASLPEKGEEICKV
Experimental: as §1, §2

## C/C(=C\c1ccccc1O)c1ccc2ccccc2n1.Cl [Compound 11B_CC11_HCl, (E)-2-(2-Quinolin-2-yl-propenyl)-phenol HCl salt]
[1]
  inhibition at 30 µM: 41%
[2]
  inhibition at 30 µM: 137%
